Values after ≈ are worked out from the molar mass of the structure shown. Values joined by “and” are separate entries in the source; they are usually repeats but may differ in a detail not shown here. Equal values may be shown once. Each block holds one compound with its values, some of them ahead of it.
Legend:
Assay in all cases: ≥ marks a high value that may be exact or a test limit, other limits are often not marked, values filed in µg/mL are converted to µM
[1] = system: Clavibacter michiganensis subsp. michiganensis DSM 46294
[2] = system: Pseudomonas syringae pv. syringae DSM 10604
[3] = system: Staphylococcus aureus 90857
[4] = system: Pseudomonas corrugata DSM 7228
[5] = system: Pectobacterium carotovorum subsp. carotovorum DSM 30168
[6] = system: Xanthomonas vesicatoria DSM 50861
[7] = system: Pseudomonas syringae pv. tomato DC3000
[8] = system: Micrococcus luteus A270
[9] = system: Neurospora crassa CBS 327-54
[10] = system: Aspergillus fumigatus
[11] = system: Escherichia coli D22
[12] = system: Staphylococcus aureus
[13] = system: Escherichia coli NCTC 10418
[14] = system: Staphylococcus aureus ATCC 6538
[15] = system: Bacillus cereus
[16] = system: Lactococcus lactis
[17] = system: Escherichia coli
[18] = system: Escherichia coli JM109
[19] = system: Pseudomonas putida GPp104
[20] = system: Escherichia coli BL21(DE3)
[21] = system: Cupriavidus necator H16
[22] = system: Mycobacterium tuberculosis WXY
[23] = system: Escherichia coli ATCC 25922
[24] = system: Pseudomonas aeruginosa ATCC 27853
[25] = system: Mycobacterium tuberculosis FYX
[26] = system: Mycobacterium tuberculosis H37Rv
[27] = system: Mycobacterium tuberculosis CAS3
[28] = system: Klebsiella pneumoniae ST258
[29] = system: Mycobacterium tuberculosis
[30] = system: Cryptococcus neoformans
[31] = system: Aggregatibacter actinomycetemcomitans ATCC 29522
[32] = system: Cryptococcus gattii ATCC 32608
[33] = system: Escherichia coli ATCC 10536
[34] = system: Staphylococcus epidermidis ATCC 12228
[35] = system: Streptococcus sanguinis ATCC 10556
[36] = system: Candida krusei
[37] = system: Acinetobacter baumannii ATCC 19606
[38] = system: Cryptococcus neoformans ATCC 24067
[39] = system: Candida krusei ATCC 20029

- MIC [1]: 0.194 µM (≈ 0.5 µg/mL)
- MIC [2]: 1.94 µM (≈ 5 µg/mL)
- MIC [3]: 16 µM (≈ 41.2 µg/mL)
- MIC [4]: 0.971 µM (≈ 2.5 µg/mL)
- MIC [5]: 3.88 µM (≈ 10 µg/mL)
- MIC [6]: 0.0971 µM (≈ 0.25 µg/mL)
- MIC [7]: 0.971 µM (≈ 2.5 µg/mL)
SMILES: CC(C)C[C@H](NC(=O)[C@H](CCCCN)NC(=O)[C@H](CCCN=C(N)N)NC(=O)[C@H](CCCN=C(N)N)NC(=O)[C@@H](N)CCCCN)C(=O)N[C@@H](C)C(=O)N[C@@H](Cc1ccccc1)C(=O)N[C@@H](CCCN=C(N)N)C(=O)N[C@@H](CC(C)C)C(=O)N[C@@H](Cc1ccccc1)C(=O)N[C@@H](CCCN=C(N)N)C(=O)N[C@@H](CC(C)C)C(=O)N[C@@H](Cc1ccccc1)C(=O)N[C@@H](CC(C)C)C(=O)N[C@@H](CCCCN)C(=O)N[C@@H](CC(C)C)C(=O)N[C@H](C(=O)N[C@@H](CC(C)C)C(=O)N[C@@H](CCCCN)C(=O)N[C@@H](CCCCN)C(N)=O)C(C)C [KRRKLAFRLFRLFLKLVLKK]

- MIC [8]: 10 µM (≈ 23.4 µg/mL)
- MIC [9]: 10 µM (≈ 23.4 µg/mL)
- MIC [10]: ≥ 100 µM
- MIC [11]: ≥ 100 µM
SMILES: CSCC[C@H](NC(=O)[C@H](CO)NC(=O)[C@@H](N)CO)C(=O)N[C@@H](CCCCN)C(=O)N[C@@H](CC(C)C)C(=O)N[C@@H](CO)C(=O)N[C@@H](Cc1ccccc1)C(=O)N[C@@H](CCCN=C(N)N)C(=O)N[C@@H](C)C(=O)N[C@@H](CCCN=C(N)N)C(=O)N[C@@H](C)C(=O)N[C@@H](Cc1ccc(O)cc1)C(=O)NCC(=O)N[C@@H](Cc1ccccc1)C(=O)N[C@@H](CCCN=C(N)N)C(=O)NCC(=O)N1CCC[C@H]1C(=O)NCC(=O)N[C@@H](CC(C)C)C(=O)N[C@@H](CCC(N)=O)C(=O)N[C@@H](CC(C)C)C(=O)O [SSMKLSFRARAYGFRGPGLQL]

- MIC [12]: 14.4 µM (≈ 25 µg/mL)
- MIC [13]: ≥ 100 µM
- MIC [14]: 3.1 µM (≈ 5.38 µg/mL)
- MIC [15]: 14.4 µM (≈ 25 µg/mL)
- MIC [16]: 14.4 µM (≈ 25 µg/mL)
- MIC [17]: > 100 µM
SMILES: CC[C@H](C)[C@H](NC(=O)[C@H](CCCCN)NC(=O)[C@H](CCCCN)NC(=O)[C@H](CC(C)C)NC(=O)[C@H](CC(=O)O)NC(=O)[C@@H](NC(=O)[C@@H](N)Cc1ccccc1)C(C)C)C(=O)N[C@@H](C)C(=O)N[C@@H](CC(N)=O)C(=O)N[C@H](C(=O)N[C@H](C(=O)N[C@@H](CC(N)=O)C(=O)N[C@@H](CO)C(=O)N[C@H](C(=O)N[C@@H](Cc1ccccc1)C(N)=O)[C@@H](C)CC)[C@@H](C)CC)[C@@H](C)CC [FVDLKKIANIINSIF]

- MIC [18]: 6.25 µM (≈ 13.6 µg/mL)
- MIC [19]: 6.25 µM (≈ 13.6 µg/mL)
- MIC [20]: 0.313 µM (≈ 0.681 µg/mL)
- MIC [21]: 10 µM (≈ 21.8 µg/mL)
SMILES: CC[C@H](C)[C@H](NC(=O)[C@H](Cc1ccc(O)cc1)NC(=O)[C@@H](NC(=O)[C@@H]1CCCN1C(=O)[C@H](CCCN=C(N)N)NC(=O)[C@@H](NC(=O)[C@@H]1CCCN1C(=O)[C@@H](N)CCCN=C(N)N)C(C)C)C(C)C)C(=O)N1CCC[C@H]1C(=O)N[C@@H](CCC(N)=O)C(=O)N1CCC[C@H]1C(=O)N[C@@H](CCCN=C(N)N)C(=O)N1CCC[C@H]1C(=O)N1CCC[C@H]1C(=O)N[C@@H](Cc1cnc[nH]1)C(=O)N1CCC[C@H]1C(=O)N[C@@H](CCCN=C(N)N)C(=O)N[C@@H](CC(C)C)C(=O)O [RPVRPVYIPQPRPPHPRL]

- MIC [22]: 22.3 µM (≈ 37.5 µg/mL)
- MIC [23]: 25 µM (≈ 42 µg/mL)
- MIC [24]: > 29.8 µM
- MIC [25]: 11.2 µM (≈ 18.8 µg/mL)
- MIC [26]: 11.9 µM and 11.2 µM
- MIC [27]: 11.2 µM (≈ 18.8 µg/mL)
- MIC [28]: 29.8 µM (≈ 50 µg/mL)
- MIC [29]: 5.95 µM (≈ 10 µg/mL)
SMILES: CC(C)C[C@H](NC(=O)[C@H](CCCCN)NC(=O)[C@H](CCCCN)NC(=O)[C@H](CO)NC(=O)[C@H](Cc1ccccc1)NC(=O)[C@H](CCCCN)NC(=O)[C@H](CCCCN)NC(=O)[C@H](CC(C)C)NC(=O)CNC(=O)[C@H](CCCCN)NC(=O)[C@H](CC(C)C)NC(=O)CNC(=O)[C@H](Cc1c[nH]c2ccccc12)NC(=O)[C@@H](N)Cc1ccccc1)C(=O)O [FWGLKGLKKFSKKL]

- MIC [30]: 13.2 µM (≈ 37.4 µg/mL)
- MIC [31]: 10.6 µM (≈ 30 µg/mL)
- MIC [32]: 2.23 µM (≈ 6.32 µg/mL)
- MIC [24]: 2.82 µM (≈ 7.99 µg/mL)
- MIC [14]: 5.52 µM (≈ 15.6 µg/mL)
- MIC [33]: 5.52 µM (≈ 15.6 µg/mL)
- MIC [34]: 0.7 µM (≈ 1.98 µg/mL)
- MIC [35]: 10.9 µM (≈ 30.9 µg/mL)
- MIC [36]: 26.3 µM (≈ 74.5 µg/mL)
- MIC [37]: 0.7 µM (≈ 1.98 µg/mL)
- MIC [38]: 7.11 µM (≈ 20.1 µg/mL)
- MIC [39]: 14.2 µM (≈ 40.3 µg/mL)
SMILES: CC[C@H](C)[C@H](N)C(=O)N[C@@H](Cc1c[nH]c2ccccc12)C(=O)N[C@@H](CC(C)C)C(=O)N[C@H](C(=O)N[C@@H](C)C(=O)N[C@@H](CC(C)C)C(=O)N[C@@H](CCCCN)C(=O)N[C@@H](Cc1ccccc1)C(=O)N[C@@H](CC(C)C)C(=O)NCC(=O)N[C@@H](CCCCN)C(=O)N[C@@H](CC(N)=O)C(=O)N[C@@H](CC(C)C)C(=O)NCC(=O)N[C@@H](CCCCN)C(=O)N[C@@H](Cc1cnc[nH]1)C(=O)N[C@@H](CC(C)C)C(=O)N[C@@H](C)C(=O)N[C@@H](CCCCN)C(=O)N[C@@H](CCC(N)=O)C(=O)N[C@@H](CCC(N)=O)C(=O)N[C@@H](CC(C)C)C(=O)N[C@@H](C)C(=O)N[C@@H](CCCCN)C(=O)N[C@@H](CC(C)C)C(N)=O)[C@@H](C)O [IWLTALKFLGKNLGKHLAKQQLAKL]

Reference: DBAASP
